Assay results as given in ChEMBL document CHEMBL1909046, “DrugMatrix in vitro pharmacology data”.

Key:
[1] = target: T1, 5-hydroxytryptamine receptor 2C (Homo sapiens, UniProt P28335); test: DRUGMATRIX: Serotonin (5-Hydroxytryptamine) 5-HT2C radioligand binding (ligand: [3H] Mesulergine); assay type: cell membranes, CHO-K1, Membrane; details: Not Active = under 50% inhibition at 10 µM
T1 sequence (P28335 whole entry): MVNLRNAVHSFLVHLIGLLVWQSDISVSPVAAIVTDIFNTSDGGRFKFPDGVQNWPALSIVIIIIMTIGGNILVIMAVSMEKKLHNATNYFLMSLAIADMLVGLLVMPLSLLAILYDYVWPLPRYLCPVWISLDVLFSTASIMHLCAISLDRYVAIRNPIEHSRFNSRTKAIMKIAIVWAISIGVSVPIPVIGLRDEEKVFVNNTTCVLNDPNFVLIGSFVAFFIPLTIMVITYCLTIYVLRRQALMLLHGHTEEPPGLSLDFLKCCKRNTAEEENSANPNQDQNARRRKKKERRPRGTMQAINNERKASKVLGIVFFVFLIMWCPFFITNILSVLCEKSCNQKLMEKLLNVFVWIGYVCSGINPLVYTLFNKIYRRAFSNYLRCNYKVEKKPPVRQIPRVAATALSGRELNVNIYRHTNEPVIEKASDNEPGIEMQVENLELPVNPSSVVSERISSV

D(3) dopamine receptor = D(3) dopamine receptor (Homo sapiens, UniProt P35462); test: DRUGMATRIX: Dopamine D3 radioligand binding (ligand: [3H] Spiperone); assay type: cell membranes, CHO, Membrane; details: for Ki: read-out: Ki
Chain of D(3) dopamine receptor (P35462 whole entry): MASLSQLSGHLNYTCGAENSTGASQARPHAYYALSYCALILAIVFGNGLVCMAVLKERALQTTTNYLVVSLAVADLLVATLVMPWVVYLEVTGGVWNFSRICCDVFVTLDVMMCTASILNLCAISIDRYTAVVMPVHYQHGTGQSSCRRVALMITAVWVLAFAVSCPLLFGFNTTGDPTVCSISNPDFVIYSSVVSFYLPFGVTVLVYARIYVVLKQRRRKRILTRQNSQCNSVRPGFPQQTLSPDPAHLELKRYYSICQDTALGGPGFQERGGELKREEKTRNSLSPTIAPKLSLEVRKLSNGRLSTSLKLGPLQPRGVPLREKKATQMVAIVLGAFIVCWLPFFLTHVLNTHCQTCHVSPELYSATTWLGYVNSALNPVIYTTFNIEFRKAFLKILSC

Mu-type opioid receptor = Mu-type opioid receptor (Homo sapiens, UniProt P35372); test: DRUGMATRIX: Opiate mu (OP3, MOP) radioligand binding (ligand: [3H] Diprenorphine); assay type: cell membranes, CHO-K1, Membrane; details: Not Active = under 50% inhibition at 10 µM
Chain of Mu-type opioid receptor (P35372 whole entry): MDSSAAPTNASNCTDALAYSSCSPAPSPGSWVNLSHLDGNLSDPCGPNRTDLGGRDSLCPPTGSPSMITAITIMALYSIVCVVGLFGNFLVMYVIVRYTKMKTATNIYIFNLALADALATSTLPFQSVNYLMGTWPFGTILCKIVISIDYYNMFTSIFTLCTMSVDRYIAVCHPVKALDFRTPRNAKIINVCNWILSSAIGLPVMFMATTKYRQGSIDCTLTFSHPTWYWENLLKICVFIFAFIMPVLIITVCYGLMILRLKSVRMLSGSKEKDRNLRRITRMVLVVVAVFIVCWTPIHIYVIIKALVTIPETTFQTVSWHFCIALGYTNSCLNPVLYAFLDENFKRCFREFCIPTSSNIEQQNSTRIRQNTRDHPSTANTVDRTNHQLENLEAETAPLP

Cytochrome P450 2A6 = target: T2, Cytochrome P450 2A6 (Homo sapiens, UniProt P11509); details: bti-tn-5b1-4; further: in other assays of this panel Not Active means under 50% inhibition at 10 µM
T2 sequence (P11509 whole entry): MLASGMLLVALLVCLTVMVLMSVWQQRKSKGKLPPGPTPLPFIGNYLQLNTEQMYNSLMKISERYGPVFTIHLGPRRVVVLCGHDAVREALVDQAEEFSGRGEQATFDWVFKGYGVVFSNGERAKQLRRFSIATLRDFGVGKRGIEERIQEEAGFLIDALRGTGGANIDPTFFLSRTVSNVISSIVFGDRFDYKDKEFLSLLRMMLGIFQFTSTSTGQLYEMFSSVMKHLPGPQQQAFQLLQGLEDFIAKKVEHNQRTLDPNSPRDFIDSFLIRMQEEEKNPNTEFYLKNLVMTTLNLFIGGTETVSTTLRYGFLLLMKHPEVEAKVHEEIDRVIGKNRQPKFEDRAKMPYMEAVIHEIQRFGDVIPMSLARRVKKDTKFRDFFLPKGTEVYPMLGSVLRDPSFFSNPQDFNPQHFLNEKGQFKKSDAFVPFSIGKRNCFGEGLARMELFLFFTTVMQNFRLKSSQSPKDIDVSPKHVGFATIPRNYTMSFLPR

Cytochrome P450 3A4 = Cytochrome P450 3A4 (Homo sapiens, UniProt P08684); details: bti-tn-5b1-4; further: in other assays of this panel Not Active means under 50% inhibition at 10 µM
Chain of Cytochrome P450 3A4 (P08684 whole entry): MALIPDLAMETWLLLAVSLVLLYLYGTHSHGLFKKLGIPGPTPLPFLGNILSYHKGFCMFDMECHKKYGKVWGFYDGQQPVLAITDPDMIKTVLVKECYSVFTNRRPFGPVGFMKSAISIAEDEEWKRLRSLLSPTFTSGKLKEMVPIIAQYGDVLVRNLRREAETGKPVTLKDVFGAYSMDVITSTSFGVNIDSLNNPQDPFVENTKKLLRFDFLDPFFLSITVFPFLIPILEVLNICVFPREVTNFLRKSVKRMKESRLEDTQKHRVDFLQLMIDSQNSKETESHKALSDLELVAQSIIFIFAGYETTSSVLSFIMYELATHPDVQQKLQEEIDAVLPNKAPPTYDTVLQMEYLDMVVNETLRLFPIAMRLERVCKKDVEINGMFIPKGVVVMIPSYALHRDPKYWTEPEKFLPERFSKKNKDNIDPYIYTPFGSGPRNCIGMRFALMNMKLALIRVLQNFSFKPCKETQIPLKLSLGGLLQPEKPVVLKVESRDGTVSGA

Estrogen receptor = target: T3, Estrogen receptor (Homo sapiens, UniProt P03372); details: sf9; further: in other assays of this panel Not Active means under 50% inhibition at 10 µM
T3 sequence (P03372 whole entry): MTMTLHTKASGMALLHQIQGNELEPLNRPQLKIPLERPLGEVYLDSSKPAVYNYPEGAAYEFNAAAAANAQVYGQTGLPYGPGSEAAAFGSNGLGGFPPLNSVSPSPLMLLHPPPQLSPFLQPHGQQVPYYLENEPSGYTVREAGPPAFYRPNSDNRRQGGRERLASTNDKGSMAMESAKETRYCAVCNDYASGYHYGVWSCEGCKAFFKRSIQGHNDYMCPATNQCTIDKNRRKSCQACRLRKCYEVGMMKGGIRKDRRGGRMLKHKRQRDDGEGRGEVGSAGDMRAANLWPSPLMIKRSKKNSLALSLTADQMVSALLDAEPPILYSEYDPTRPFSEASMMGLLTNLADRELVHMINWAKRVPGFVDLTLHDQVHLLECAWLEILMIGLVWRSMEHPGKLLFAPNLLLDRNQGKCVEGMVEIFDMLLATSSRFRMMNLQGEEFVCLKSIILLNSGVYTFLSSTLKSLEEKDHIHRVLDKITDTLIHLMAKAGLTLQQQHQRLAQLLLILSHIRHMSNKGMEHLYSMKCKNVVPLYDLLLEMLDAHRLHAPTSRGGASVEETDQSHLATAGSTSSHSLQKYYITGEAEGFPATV

| SMILES | IC50 ([1]; cho-k1) | IC50 (D(3) dopamine receptor; cho) | IC50 (Mu-type opioid receptor; cho-k1) | IC50 (Cytochrome P450 2A6) | Ki (Cytochrome P450 2A6) | IC50 (Cytochrome P450 3A4) | Ki (Cytochrome P450 3A4) | IC50 (Estrogen receptor) | IC50 (D(3) dopamine receptor; read-out: IC50) [nM] | Ki (D(3) dopamine receptor) [nM] | Ki (Mu-type opioid receptor) [nM] | IC50 (Mu-type opioid receptor; read-out: IC50) [nM] | IC50 ([1]; read-out: IC50) [nM] | Ki ([1]; read-out: Ki) [nM] |
| --- | --- | --- | --- | --- | --- | --- | --- | --- | --- | --- | --- | --- | --- | --- |
| Cc1ccc(Cl)c(Nc2ccccc2C(=O)O)c1Cl [MECLOFENAMIC ACID] | Not Active | Not Active | Not Active | Not Active | Not Active | Not Active | Not Active | Not Active |  |  |  |  |  |  |
| Cc1ccnc(NS(=O)(=O)c2ccc(N)cc2)n1 [SULFAMERAZINE] | Not Active | Not Active | Not Active | Not Active | Not Active | Not Active | Not Active | Not Active |  |  |  |  |  |  |
| C[N+]1(C)[C@@H]2C[C@@H](OC(=O)[C@H](CO)c3ccccc3)C[C@H]1[C@@H]1O[C@@H]12.[Br-] [METHSCOPOLAMINE BROMIDE] | Not Active | Not Active | Not Active | Not Active | Not Active | Not Active | Not Active | Not Active |  |  |  |  |  |  |
| OC[C@@H](O)[C@@H](O)[C@H](O)[C@H](O)CO [MANNITOL] | Not Active | Not Active | Not Active | Not Active | Not Active | Not Active | Not Active | Not Active |  |  |  |  |  |  |
| CC1=C(/C=C/C(C)=C/C=C/C(C)=C/C(=O)O)C(C)(C)CCC1 [TRETINOIN] | Not Active | Not Active | Not Active | Not Active | Not Active | Not Active | Not Active | Not Active |  |  |  |  |  |  |
| CC[C@H](C)C(=O)O[C@H]1CCC=C2C=C[C@H](C)[C@H](CC[C@@H]3C[C@@H](O)CC(=O)O3)[C@H]21 [MEVASTATIN] | Not Active | Not Active | Not Active | Not Active | Not Active | Not Active | Not Active | Not Active |  |  |  |  |  |  |
| CCN(CC)C(=S)SSC(=S)N(CC)CC | Not Active |  |  | Not Active | Not Active | Not Active | Not Active | Not Active | 1080 | 368 | 1420 | 3510 |  |  |
| CCN(CC)CCNC(=O)c1cc(Cl)c(N)cc1OC [METOCLOPRAMIDE] |  |  | Not Active | Not Active | Not Active | Not Active | Not Active | Not Active | 200 | 68 |  |  | 2380 | 1250 |
| Cc1nnc(NS(=O)(=O)c2ccc(N)cc2)s1 [SULFAMETHIZOLE] | Not Active | Not Active | Not Active | Not Active | Not Active | Not Active | Not Active | Not Active |  |  |  |  |  |  |
| CC1(C)[C@H](C(=O)O)N2C(=O)C[C@H]2S1(=O)=O [SULBACTAM] | Not Active | Not Active | Not Active | Not Active | Not Active | Not Active | Not Active | Not Active |  |  |  |  |  |  |
| CO[C@@H]1[C@@H](OC)[C@H](C)[C@@](O)(CC(=O)O)O[C@H]1[C@H](C)[C@H]1O[C@@]2(CC[C@@](C)([C@H]3CC[C@@](C)([C@@H]4O[C@@H]([C@H]5O[C@](C)(O)[C@H](C)C[C@@H]5C)C[C@@H]4O[C@@H]4C[C@H](OC)[C@@H](OC)[C@H](C)O4)O3)O2)C[C@H](O)[C@H]1C.N [MADURAMICIN] | Not Active | Not Active | Not Active | Not Active | Not Active | Not Active | Not Active | Not Active |  |  |  |  |  |  |
| CN1C(=O)OC(C)(C)C1=O [TRIMETHADIONE] | Not Active | Not Active | Not Active | Not Active | Not Active | Not Active | Not Active | Not Active |  |  |  |  |  |  |
| CC(C)(C)NC[C@H](O)COc1cccc2c1CCCC2=O [LEVOBUNOLOL] | Not Active | Not Active | Not Active | Not Active | Not Active | Not Active | Not Active | Not Active |  |  |  |  |  |  |
| Cc1cccc(C)c1NC(=O)C(C)N (centres undefined) [TOCAINIDE] | Not Active | Not Active | Not Active | Not Active | Not Active | Not Active | Not Active | Not Active |  |  |  |  |  |  |
| Cc1[nH]c(=O)c(C#N)cc1-c1ccncc1 [MILRINONE] | Not Active | Not Active | Not Active | Not Active | Not Active | Not Active | Not Active | Not Active |  |  |  |  |  |  |
| COC(=O)Nc1nc2ccc(C(=O)c3ccccc3)cc2[nH]1 [MEBENDAZOLE] | Not Active | Not Active | Not Active | Not Active | Not Active | Not Active | Not Active | Not Active |  |  |  |  |  |  |
| CC(=O)O[C@]1(C(C)=O)CC[C@H]2[C@@H]3C[C@H](C)C4=CC(=O)CC[C@]4(C)[C@H]3CC[C@@]21C [MEDROXYPROGESTERONE ACETATE] | Not Active | Not Active | Not Active | Not Active | Not Active | Not Active | Not Active | Not Active |  |  |  |  |  |  |
| Cc1cnc(NC(=O)C2=C(O)c3ccccc3S(=O)(=O)N2C)s1 [MELOXICAM] | Not Active | Not Active | Not Active | Not Active | Not Active | Not Active | Not Active | Not Active |  |  |  |  |  |  |
| CC(O)C(=O)O (centres undefined) [LACTIC ACID] | Not Active | Not Active | Not Active | Not Active | Not Active | Not Active | Not Active | Not Active |  |  |  |  |  |  |
| CC(N)C12CC3CC(CC(C3)C1)C2 (centres undefined) [RIMANTADINE] | Not Active | Not Active | Not Active | Not Active | Not Active | Not Active | Not Active | Not Active |  |  |  |  |  |  |
